Experimental data from patent US20230150951A1, “2,5- OR 2,6-DISUBSTITUTED HYDROQUINONE DERIVATIVES WITH AT LEAST ONE CARBOXY, SULFO OR AMIDO GROUP USEFUL AS MEDICAMENTS” (OM PHARMA SA, priority 2020, published 2023).
Where two headings read alike, the source gives them in different places.

Legend:
Human neutrophils = experiment: Inhibition of ROS production in human neutrophils (isoluminol chemiluminescence); type: cell-based; conditions: Homo sapiens, Neutrophil, fMLP+TNF-α stimulated PMN
In short: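 Neutrophils from healthy-donor buffy coats (3×10^6/ml in HBSS with Ca/Mg) pre-incubated 30 min at 37° C with compound (0.1–10 μM), primed with TNF-α 20 ng/ml for 10 min, then added to fibrinogen-coated wells. Isoluminol/HRP chemiluminescence recorded every 25 sec for 250 sec after fMLP (1 μM), background-subtracted.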

IL-1beta = experiment: Cytokine release after LPS induction on human whole blood: IL-1β; type: cell-based
Protocol: (§1) Aim of this in vitro method is to assess compounds effects on release of a panel of cytokines from whole blood following lipopolysaccharide (LPS) induced inflammatory reaction. Whole blood was incubated with compounds for 1 h prior to LPS induction. Cytokine levels in blood were measured using a multiplex FACS-based panel.
(§2) IC50 values determined for the tested compounds expressed in microM [μM] and the values for the inhibition of cytokines were listed for each compound.
(§3) Effect on cytokines release after LPS induction was performed on the compounds dissolved in DMSO or H2O to reach 10-fold concentrated stock solutions and dissolved in culture media.
(§4) Test system: Whole blood was removed from a single donor (into lithium heparin coated tubes; BD Vacutainer; 367886) and diluted 1:5 with RPMI 1640 (Thermo Fisher, 61870036). Within 30 minutes of sampling, blood was incubated with compounds for 1 h prior to LPS stimulation (O111:B4—Sigma L4391; 10 ng/ml final concentration). Stimulation continued under standard cell culture conditions (37° C. with 5% CO2) overnight (18 h), after which plates were centrifuged and supernatant removed and frozen at −80° C. until used for analyses.
(§5) Dilution of test compounds: 10×concentrated solutions (concerning to the final assay concentrations) of each test compound were prepared with the appropriate solvent (in DMSO or in water). These 10× compound solutions (10 μl) were then added to 90 μl pre-diluted whole blood (whole blood: RPMI1640, 1:5) resulting in the final assay concentration.
(§6) Test method: Diluted whole blood (80 μl) was pre-incubated with compounds (10 μl) to give final assay concentrations of 100, 30, 10, 3, 1, 0.3 and 0.1×10^−6M. Blood was incubated at 37° C. with 5% CO2 for 1 h. LPS was diluted in cell culture media to a concentration of […]; 10 μl was added to the whole blood to give a final concentration of 10 ng/ml. Plates were incubated at 37° C. for 18 h. Plates were centrifuged at 3,000 RPM for 5 minutes at 4° C. and supernatant removed and frozen at −80° C. until FACS analysis was carried out.
(§7) Cytokine release was measured using a custom multiplex system (ELISA Genie) according to manufacturers instructions. Prepared samples were run on an Attune NxT flow cytometer (Thermo Fisher).
(§8) Quantification of cytokine release inhibition: known concentration standards were run as part of the cytokine panel to allow quantification of each cytokine concentration in each sample. This was carried out using FCAP Array v3.0 software.
(§9) Results: The dose response relationship on cytokine release following LPS induction of inflammatory response in whole blood was assessed for all compounds. IC50 values were determined for each compound for a panel of cytokines (GM-CSF, IFN-gamma, IL-1beta, IL-2, IL-4, IL-5, IL-6, IL-8, IL-9, IL-10, IL-12p40, IL-13, IL-17A, IL-17F, IL-18, IL-21, IL-22, IL-33, TGF-beta, TNF-alpha, TNF-beta).

IL-17A = experiment: Cytokine release after LPS induction on human whole blood: IL-17A; type: cell-based
Protocol: as §1, §2, §3, §4, §5, §6, §7, §8, §9

IL-33 = experiment: Cytokine release after LPS induction on human whole blood: IL-33; type: cell-based
Protocol: as §1, §2, §3, §4, §5, §6, §7, §8, §9

TNF-alpha = experiment: Cytokine release after LPS induction on human whole blood: TNFα; type: cell-based
Protocol: as §1, §2, §3, §4, §5, §6, §7, §8, §9

[1] = system: STZ-induced diabetes model; experiment: STZ-induced diabetic nephropathy, kidney disease and retinopathy model (28 days treatment); conditions: for Retina vasculature coverage / Kidney collagen levels (Masson's Trichrome) / Serum TNF-α: 28 days; for Retina vasculature coverage: retinal flat mounts, FITC-dextran; for Kidney collagen levels (Masson's Trichrome) / Blood glucose levels on day 28 / Blood urea nitrogen levels: vs induced vehicle controls; for Blood glucose levels on day 28: IV; for Mean day 0 blood glucose Concentration (mmol/L) (SD) / Mean day 28 blood glucose Concentration (mmol/L) (SD) / Blood BUN / Disease Score (kidney, H&E) / Eye area (retinal flatmount area covered by vasculature) / Trichrome staining (Kidney fibrosis) / Blood CRP / Blood IL-6 / Blood TGF-beta / Blood TNF-alpha / Urine albumine creatinine ratio (ALB:CRE): 15 mg/kg IV, Captopril 50 mg/kg PO; for Mean day 28 blood glucose Concentration (mmol/L) (SD) / Blood urea nitrogen levels: day 28; for Blood BUN / Disease Score (kidney, H&E) / Eye area (retinal flatmount area covered by vasculature) / Trichrome staining (Kidney fibrosis) / Blood CRP / Blood IL-6 / Blood TGF-beta / Blood TNF-alpha / Urine albumine creatinine ratio (ALB:CRE): day 28 of treatment (week 9); for Blood CRP / Blood IL-6 / Blood TGF-beta / Blood TNF-alpha: serum; for Urine albumine creatinine ratio (ALB:CRE): urine pooled per group; for Urine ALB:CREA: treatment day 28; for Serum TNF-α: p<0.05
[2] = Homo sapiens, LPS 10 ng/ml, 18 h, read-out: Whole Blood: IL-1β IC50
[3] = human whole blood, inhibition of LPS induced inflammation, read-out: IC50 IL-1b
[4] = Homo sapiens, LPS 10 ng/ml, 18 h, read-out: Whole Blood: IL-17A IC50
[5] = human whole blood, inhibition of LPS induced inflammation, read-out: IC50 IL-17A
[6] = Homo sapiens, LPS 10 ng/ml, 18 h, read-out: Whole Blood: IL-33 IC50
[7] = human whole blood, inhibition of LPS induced inflammation, read-out: IC50 IL-33
[8] = Homo sapiens, LPS 10 ng/ml, 18 h, read-out: Whole Blood: TNF α IC50
[9] = human whole blood, inhibition of LPS induced inflammation, read-out: IC50 TNFa

Compound | inhibition at 0.3 µM (Human neutrophils) [%] | IC50 (Human neutrophils) [nM] | IC50 (IL-1beta; [2]) [nM] | IC50 (IL-1beta; [3]) [nM] | IC50 (IL-17A; [4]) [nM] | IC50 (IL-17A; [5]) [nM] | IC50 (IL-33; [6]) [nM] | IC50 (IL-33; [7]) [nM] | IC50 (TNF-alpha; [8]) [nM] | IC50 (TNF-alpha; [9]) [nM] | Retina vasculature coverage [1] | Blood urea nitrogen levels [1] | Blood BUN [1] | Disease Score (kidney, H&E) [1] | Eye area (retinal flatmount area covered by vasculature) [1] | Trichrome staining (Kidney fibrosis) [1] | Blood CRP [1] | Blood IL-6 [1] | Blood TGF-beta [1] | Blood TNF-alpha [1] | also measured
O=C(O)c1cc(O)cc(CS(=O)(=O)Cc2cc(O)cc(C(=O)O)c2O)c1O [IVc-059a, 3-((2,5-Dihydroxy-3-carboxyphenyl)methylsulfonylmethyl)-2,5-dihydroxybenzoic acid] | 74 | 147 | 38600 | 38600 | 160 | 160 | 27500 | 27500 | 160 | 160 | significantly decreased | significantly lower than induced vehicle controls | 22.5 ± 2.8 | 7 ± 1 | 8.7 ± 1.2 | 1.48 ± 0.73 | 5691 ± 1395 | 120.88 ± 23.05 | 13.47 ± 3.33 | 350.2 ± 41.4 | Kidney collagen levels (Masson's Trichrome) [1]: significantly decreased; Blood glucose levels on day 28 [1]: significant reduction; Mean day 0 blood glucose Concentration (mmol/L) (SD) [1]: 24.3 (6.4) mmol/L; Mean day 28 blood glucose Concentration (mmol/L) (SD) [1]: 23.7 (6.6) mmol/L; Urine albumine creatinine ratio (ALB:CRE) [1]: 18.85; Urine ALB:CREA [1]: reduced
O=C(O)c1cc(NC(=O)c2cc(O)c(C(=O)Nc3ccc(O)c(C(=O)O)c3)cc2O)ccc1O [Ic-007a, 5-(4-(3-carboxy-4-hydroxyphenylaminocarbonyl)-2,5-dihydroxybenzamido)-2-hydroxy benzoic acid] | 58 | 2700 | > 100000 | 100000 | 40 | 40 | 18400 | 18400 | 270 | 270 | significantly decreased | significantly lower than induced vehicle controls | 21.7 ± 3.0 | 7 ± 1 | 9.1 ± 1.1 | 2.23 ± 0.61 | 5707 ± 892 | 109.27 ± 19.03 | 16.66 ± 2.11 | 326.8 ± 63^ | 
O=C(O)c1cc(O)c(C(=O)Nc2ccccc2C(=O)O)cc1O [Ia-001a, 4-(2-carboxyphenylaminocarbonyl)-2,5-dihydroxybenzoic acid] | 48 | 355 | 34400 | 34400 | 100 | 100 | 19300 | 19300 | 20 | 20 |  |  | 25.1 ± 3.1 | 7 ± 1 | 9.9 ± 1.9 | 1.87 ± 0.65 | 4759 ± 1181 | 114.16 ± 29.96 | 15.54 ± 2.8 | 342.3 ± 15.6 | Serum CRP ([1]; 28 days of treatment, vs vehicle induced controls): significantly reduced; Serum TNF-α [1]: significantly lower than vehicle induced controls; Mean day 0 blood glucose Concentration (mmol/L) (SD) [1]: 25.7 (6.3) mmol/L; Mean day 28 blood glucose Concentration (mmol/L) (SD) [1]: 31.6 (3.8) mmol/L; Urine albumine creatinine ratio (ALB:CRE) [1]: 35.68
O=C(O)c1cc(O)c(CN(Cc2cc(O)c(C(=O)O)cc2O)Cc2cc(O)c(C(=O)O)cc2O)cc1O [IIIc-061a, Tris(4-carboxy-2,5-dihydroxyphenylmethyl)amine] | 92.5 |  | > 100000 | 100000 | 40 | 40 | 310 | 310 | 30 | 30 | significantly decreased | significantly lower than induced vehicle controls | 22.5 ± 4.1 | 8 ± 1 | 9.1 ± 1.1 | 1.54 ± 0.55 | 5963 ± 849 | 117.59 ± 29.21 | 17.35 ± 2.09 | 324.6 ± 43.6 | Serum TNF-α [1]: significantly lower than vehicle induced controls; Kidney collagen levels (Masson's Trichrome) [1]: significantly decreased; Blood glucose levels on day 28 [1]: reduction in blood glucose levels, however this did not reach statistical significance; Urine ALB:CREA [1]: reduced
